Laboratory results reported in PubChem BioAssay AID1259407 (Chemical Carcinogenesis Research Information System (CCRIS), 2018).
Calls of active or inactive are those of the source. No rule for the calls is given here.

Test system: CCRIS mutagenicity, Ames/micronucleus/aberration tests
Assay: CCRIS mutagenicity studies
[1] = Test System: AMES SALMONELLA TYPHIMURIUM, Strain/Indicator: TA98, Metabolic Activation: NONE, Method: STANDARD PLATE

## O=[N+]([O-])c1c(-c2ccc(Cl)cc2)nc2sccn12
[1]
  mutagenic call: active; positive
Test System: AMES SALMONELLA TYPHIMURIUM, Strain/Indicator: TA100, Metabolic Activation: NONE, Method: STANDARD PLATE
  mutagenic call: inactive; negative
Test System: AMES SALMONELLA TYPHIMURIUM, Strain/Indicator: TA1535, Metabolic Activation: NONE, Method: STANDARD PLATE
  mutagenic call: inactive; negative
Test System: AMES SALMONELLA TYPHIMURIUM, Strain/Indicator: TA1537, Metabolic Activation: NONE, Method: STANDARD PLATE
  mutagenic call: active; positive
Test System: AMES SALMONELLA TYPHIMURIUM, Strain/Indicator: TA1538, Metabolic Activation: NONE, Method: STANDARD PLATE
  mutagenic call: active; positive

## CC(=O)Nc1ccc(C)cc1
Test System: AMES SALMONELLA TYPHIMURIUM, Strain/Indicator: TA97, Metabolic Activation: HAMSTER, LIVER, S-9, AROCLOR 1254 (10 OR 30%), Method: PREINCUBATION
  mutagenic call: inactive; negative
Test System: AMES SALMONELLA TYPHIMURIUM, Strain/Indicator: TA97, Metabolic Activation: NONE, Method: PREINCUBATION
  mutagenic call: inactive; negative
Test System: AMES SALMONELLA TYPHIMURIUM, Strain/Indicator: TA97, Metabolic Activation: RAT, LIVER, S-9, AROCLOR 1254 (10 OR 30%), Method: PREINCUBATION
  mutagenic call: inactive; negative
Test System: AMES SALMONELLA TYPHIMURIUM, Strain/Indicator: TA98, Metabolic Activation: HAMSTER, LIVER, S-9, AROCLOR 1254 (10 OR 30%), Method: PREINCUBATION
  mutagenic call: inactive; negative
Test System: AMES SALMONELLA TYPHIMURIUM, Strain/Indicator: TA98, Metabolic Activation: NONE, Method: PREINCUBATION
  mutagenic call: inactive; negative
Test System: AMES SALMONELLA TYPHIMURIUM, Strain/Indicator: TA98, Metabolic Activation: RAT, LIVER, S-9, AROCLOR 1254 (10 OR 30%), Method: PREINCUBATION
  mutagenic call: inactive; negative
Test System: AMES SALMONELLA TYPHIMURIUM, Strain/Indicator: TA100, Metabolic Activation: HAMSTER, LIVER, S-9, AROCLOR 1254 (10%), Method: PREINCUBATION
  mutagenic call: inactive; negative
Test System: AMES SALMONELLA TYPHIMURIUM, Strain/Indicator: TA100, Metabolic Activation: HAMSTER, LIVER, S-9, AROCLOR 1254 (30%), Method: PREINCUBATION
  mutagenic call: inactive; negative
Test System: AMES SALMONELLA TYPHIMURIUM, Strain/Indicator: TA100, Metabolic Activation: NONE, Method: PREINCUBATION
  mutagenic call: inactive; negative
Test System: AMES SALMONELLA TYPHIMURIUM, Strain/Indicator: TA100, Metabolic Activation: RAT, LIVER, S-9, AROCLOR 1254 (10 OR 30%), Method: PREINCUBATION
  mutagenic call: inactive; negative
Test System: AMES SALMONELLA TYPHIMURIUM, Strain/Indicator: TA1535, Metabolic Activation: HAMSTER, LIVER, S-9, AROCLOR 1254 (10 OR 30%), Method: PREINCUBATION
  mutagenic call: inactive; negative
Test System: AMES SALMONELLA TYPHIMURIUM, Strain/Indicator: TA1535, Metabolic Activation: NONE, Method: PREINCUBATION
  mutagenic call: inactive; negative
Test System: AMES SALMONELLA TYPHIMURIUM, Strain/Indicator: TA1535, Metabolic Activation: RAT, LIVER, S-9, AROCLOR 1254 (10 OR 30%), Method: PREINCUBATION
  mutagenic call: inactive; negative

## OC[C@H]1O[C@@H](Oc2ccc(O)cc2)[C@H](O)[C@@H](O)[C@@H]1O
Test System: Chinese hamster lung cells, Strain/Indicator: CHL (HPRT)/6-Thioguanine, Metabolic Activation: None, Method: Standard Plate
  mutagenic call: inactive; negative

## O=c1oc2cccc3ccc4c5ccccc5cc1c4c32
[1]
  mutagenic call: inactive; negative
Test System: AMES SALMONELLA TYPHIMURIUM, Strain/Indicator: TA98, Metabolic Activation: RAT, LIVER, S-9, AROCLOR 1254, Method: STANDARD PLATE
  mutagenic call: active; positive
Test System: AMES SALMONELLA TYPHIMURIUM, Strain/Indicator: TA100, Metabolic Activation: RAT, LIVER, S-9, AROCLOR 1254, Method: STANDARD PLATE
  mutagenic call: active; positive

## CCCCCC(C)[N+](=O)[O-] (stereo not drawn)
Test System: UDS RAT HEPATOCYTES, Strain/Indicator: THY INCORP, Metabolic Activation: NONE
  mutagenic call: active; positive
